In patent publication US8183262B2, “Pyridine derivatives as mGluR2 antagonists” (Hoffmann-La Roche Inc., priority 2007, dated 2012):

SMILES	melting point
Cc1cc(-c2ccc(C(F)(F)F)cc2)cc(-c2nc(-c3cnc(N)nc3)cs2)n1 [Example 231, 5-{2-[6-Methyl-4-(4-trifluoromethyl-phenyl)-pyridin-2-yl]-thiazol-4-yl}-pyrimidin-2-ylamine]	> 250 °C
Nc1ccc(-c2cc(-c3nc(-c4ccc(C(F)(F)F)c(OCC(F)(F)F)c4)cc(C(F)(F)F)n3)ccn2)cn1 [Example 135, 4-{4-[3-(2,2,2-Trifluoro-ethoxy)-4-trifluoromethyl-phenyl]-6-trifluoromethyl-pyrimidin-2-yl}-[2,3′]bipyridinyl-6′-ylamine]	223 °C
CNS(=O)(=O)c1cccc(-c2cccc(-c3cc(-c4ccc(C(F)(F)F)cc4)cc(C)n3)n2)c1 [Example 422, N-Methyl-3-[6′-methyl-4′-(4-trifluoromethyl-phenyl)-[2,2′]bipyridinyl-6-yl]-benzenesulfonamide]	176 °C
NS(=O)(=O)c1ccc(-c2cccc(-c3nc(-c4ccc(Cl)c(Cl)c4)cc(C(F)(F)F)n3)c2)s1 [Example 204, 5-{3-[4-(3,4-Dichloro-phenyl)-6-trifluoromethyl-pyrimidin-2-yl]-phenyl}-thiophene-2-sulfonic acid amide]	203 °C
Cc1cc(-c2ccc(C(F)(F)F)c(C)c2)cc(-c2cccc(-c3cccc(S(=O)(=O)NC(C)(C)C)c3)n2)n1 [Example 438, N-tert-Butyl-3-[6′-methyl-4′-(3-methyl-4-trifluoromethyl-phenyl)-[2,2′]bipyridinyl-6-yl]-benzenesulfonamide]	150 °C (dec.)
NS(=O)(=O)c1ccc(-c2cccc(-c3nc(-c4ccc(C(F)(F)F)cc4F)cc(C(F)(F)F)n3)c2)s1 [Example 413, 5-{3-[4-(2-Fluoro-4-trifluoromethyl-phenyl)-6-trifluoromethyl-pyrimidin-2-yl]-phenyl}-thiophene-2-sulfonic acid amide]	192 °C
CC(C)(CO)NS(=O)(=O)c1cccc(-c2cc(-c3nc(-c4ccc(C(F)(F)F)cc4)cc(C(F)(F)F)n3)ccn2)c1 [Example 382, N-(2-Hydroxy-1,1-dimethyl-ethyl)-3-{4-[4-trifluoromethyl-6-(4-trifluoromethyl-phenyl)-pyrimidin-2-yl]-pyridin-2-yl}-benzenesulfonamide]	221 °C
Cc1cc(-c2ccc(C(F)(F)F)cc2)cc(-c2cccc(-c3ccncc3)c2)n1 [Example 79, 2-Methyl-6-(3-pyridin-4-yl-phenyl)-4-(4-trifluoromethyl-phenyl)-pyridine]	143 to 147 °C
O=S(=O)(NCCO)c1cccc(-c2cc(-c3nc(-c4ccc(C(F)(F)F)cc4)cc(C(F)(F)F)n3)ccn2)c1 [Example 381, N-(2-Hydroxy-ethyl)-3-{4-[4-trifluoromethyl-6-(4-trifluoromethyl-phenyl)-pyrimidin-2-yl]-pyridin-2-yl}-benzenesulfonamide]	192.5 °C
Cc1cc(-c2ccc(Cl)c(C)c2)nc(-c2cccc(-c3ccc(N)nc3)c2)n1 [Example 376, 5-{3-[4-(4-Chloro-3-methyl-phenyl)-6-methyl-pyrimidin-2-yl]-phenyl}-pyridin-2-ylamine]	158 °C (dec.)
Cc1cc(-c2cc(C(F)(F)F)nc(-c3ccnc(-c4ccc(N)nc4)c3)n2)ccc1Cl [Example 108, 4-[4-(4-Chloro-3-methyl-phenyl)-6-trifluoromethyl-pyrimidin-2-yl]-[2,3′]bipyridinyl-6′-ylamine]	207 °C
Cc1cc(-c2ccc(Cl)c(C)c2)nc(-n2cnc(-c3cccc(S(N)(=O)=O)c3)c2)n1 [Example 224, 3-{1-[4-(4-Chloro-3-methyl-phenyl)-6-methyl-pyrimidin-2-yl]-1H-imidazol-4-yl}-benzenesulfonamide]	219 °C (dec.)
Nc1ncc(-c2cn(-c3nc(-c4ccc(Cl)cc4)cc(C4CC4)n3)cn2)cn1 [Example 51, 5-{1-[4-(4-Chloro-phenyl)-6-cyclopropyl-pyrimidin-2-yl]-1H-imidazol-4-yl}-pyrimidin-2-ylamine]	238 to 240 °C
Cc1cc(-c2ccc(C(F)(F)F)cc2)cc(-c2cncc(-c3ccc(N)nc3)c2)n1 [Example 67, 6-Methyl-4-(4-trifluoromethyl-phenyl)-[2,3′;5′,3″]terpyridin-6″-ylamine]	161 to 177 °C
O=S(=O)(NCCc1ccccc1)c1cccc(-c2cc(-c3nc(-c4ccc(C(F)(F)F)cc4)cc(C(F)(F)F)n3)ccn2)c1 [Example 406, N-Phenethyl-3-{4-[4-trifluoromethyl-6-(4-trifluoromethyl-phenyl)-pyrimidin-2-yl]-pyridin-2-yl}-benzenesulfonamide]	201 °C
NS(=O)(=O)c1cccc(-c2noc(-c3nc(-c4ccc(Cl)c(Cl)c4)cc(C(F)(F)F)n3)n2)c1 [Example 99, 3-{5-[4-(3,4-Dichloro-phenyl)-6-trifluoromethyl-pyrimidin-2-yl]-[1,2,4]oxadiazol-3-yl}-benzenesulfonamide]	258 °C
Nc1ccc(-c2cccc(-c3nc(-c4cccc(C(F)(F)F)c4)cc(C(F)(F)F)n3)c2)cn1 [Example 140, 5-{3-[4-Trifluoromethyl-6-(3-trifluoromethyl-phenyl)-pyrimidin-2-yl]-phenyl}-pyridin-2-ylamine]	162 °C
NS(=O)(=O)c1cccc(-c2cn(-c3nc(-c4ccc(F)c(F)c4)cc(C(F)(F)F)n3)cn2)c1 [Example 396, 3-{1-[4-(3,4-Difluoro-phenyl)-6-trifluoromethyl-pyrimidin-2-yl]-1H-imidazol-4-yl}-benzenesulfonamide]	241.5 °C
NS(=O)(=O)c1cccc(-c2cn(-c3cc(C(F)(F)F)cc(-c4ccc(C(F)(F)F)cc4)n3)cn2)c1 [Example 283, 3-{1-[4-Trifluoromethyl-6-(4-trifluoromethyl-phenyl)-pyridin-2-yl]-1H-imidazol-4-yl}-benzenesulfonamide]	> 266 °C
Cc1cc(-c2ccc(Cl)cc2)nc(-n2cnc(-c3cccnc3)c2)n1 [Example 44, 4-(4-Chloro-phenyl)-6-methyl-2-(4-pyridin-3-yl-imidazol-1-yl)-pyrimidine]	179 to 181 °C
COc1cc(-c2cc(C)nc(-c3ccnc(-c4ccc(S(N)(=O)=O)s4)c3)c2)ccc1C(F)(F)F [Example 341, 5-[4-(3-Methoxy-4-trifluoromethyl-phenyl)-6-methyl-[2,4′]bipyridinyl-2′-yl]-thiophene-2-sulfonic acid amide]	261 °C (dec.)
Cc1cc(-c2ccc(C(F)(F)F)cc2)cc(-c2cccc(-c3cccc(S(=O)(=O)N4CCC4)c3)n2)n1 [Example 426, 6′-[3-(Azetidine-1-sulfonyl)-phenyl]-6-methyl-4-(4-trifluoromethyl-phenyl)-[2,2′]bipyridinyl]	158 °C
CCCC(=O)NS(=O)(=O)c1cccc(-c2cccc(-c3cc(-c4ccc(C(F)(F)F)cc4)cc(C)n3)n2)c1 [Example 454, N-Butyryl-3-[6′-methyl-4′-(4-trifluoromethyl-phenyl)-[2,2′]bipyridinyl-6-yl]-benzenesulfonamide]	188 °C
Cc1cc(-c2ccc(C(F)(F)F)cc2)nc(-c2cccc(-c3cccc(S(N)(=O)=O)c3)n2)c1 [Example 310, 3-[4′-Methyl-6′-(4-trifluoromethyl-phenyl)-[2,2′]bipyridinyl-6-yl]-benzenesulfonamide]	229 °C
